SMILES | melting point [°C]
COc1ccc(C(=O)N2CCC(N3CC4(CCN(Cc5ccccc5)CC4)c4ccccc43)c3ccccc32)cc1OC (stereo not shown) | 155 to 157
COc1ccc(C(=O)N2c3ccccc3C(N3CCCc4cc(OCc5ccccc5)ccc43)CC2C)cc1OC (stereo not drawn) (hydrate or solvate) [Example 101, 2,4-cis-4-(6-Benzyloxy-1,2,3,4-tetrahydroquinolin-1-yl)-1-(3,4-dimethoxybenzoyl)-2-methyl-1,2,3,4-tetrahydroquinoline] | 164 to 165
CCOc1ccc(C(=O)N2c3ccccc3C(N3CCCc4ccccc43)CC2C)cc1OC (stereo not shown) (hydrate or solvate) [Example 103, 1-(4-Ethoxy-3-methoxybenzoyl)-2-methyl-4-(1,2,3,4-tetrahydroquinolin-1-yl)-1,2,3,4-tetrahydroquinoline] | 140 to 142
CCOc1ccc(C(=O)N2c3ccccc3C(n3c4ccccc4c4ccccc43)CC2C)cc1OC (stereo not drawn) (hydrate or solvate) [Example 143, 2,4-cis-4-(9H-9-Carbazolyl)-1-(4-ethoxy-3-methoxybenzoyl)-2-methyl-1,2,3,4-tetrahydroquinoline] | 214 to 215
CCOc1ccc(C(=O)N2c3ccccc3C(n3c4ccccc4c4ccccc43)CC2C)cc1OCC (stereo not drawn) (hydrate or solvate) [Example 144, 2,4-cis-4-(9H-9-Carbazolyl)-1-(3,4-diethoxybenzoyl)-2-methyl-1,2,3,4-tetrahydroquinoline] | 240 to 241
CCCC1CC(n2c3ccccc3c3ccccc32)c2ccccc2N1C(=O)c1ccc(OCC)c(OCC)c1 (stereo not drawn) (hydrate or solvate) [Example 147, 2,4-cis-4-(9H-9-Carbazolyl)-1-(3,4-diethoxybenzoyl)-2-propyl-1,2,3,4-tetrahydroquinoline] | 220
COc1ccc(C(=O)N2c3ccccc3C(n3c4ccccc4c4ccccc43)C(O)C2C)cc1OC (stereo not shown) (hydrate or solvate) [Example 162, 4-(9H-9-Carbazolyl)-1-(3,4-dimethoxybenzoyl)-3-hydroxy-2-methyl-1,2,3,4-tetrahydroquinoline] | 194 to 195
COc1ccc(C(=O)N2c3ccccc3C(N3CCCc4ccccc43)C(OC(C)=O)C2C)cc1OC (racemic) [Example 17, 2,3-trans-2,4-cis-3-Acetoxy-1-(3,4-dimethoxybenzoyl)-2-methyl-4-(1,2,3,4-tetrahydroquinolin-1-yl)-1,2,3,4-tetrahydroquinoline] | 130 to 131
COc1ccc(C(=O)N2c3ccccc3C(N3CCSc4ccccc43)CC2C)cc1OC (racemic) [Example 20, 2,4-cis-4-(3,4-Dihydro-2H-1,4-benzothiazin-4-yl)-1-(3,4-dimethoxybenzoyl)-2-methyl-1,2,3,4-tetrahydroquinoline] | 178 to 180
COc1ccc(C(=O)N2CCC(N3CCc4ccccc43)c3ccccc32)cc1OC (stereo not shown) [Example 2, 4-(2,3-Dihydro-1H-indol-1-yl)-1-(3,4-dimethoxybenzoyl)-1,2,3,4-tetrahydroquinoline] | 121 to 123
CCCCC1CC(n2c3ccccc3c3ccccc32)c2ccccc2N1C(=O)c1ccc(OC)c(OC)c1 (stereo not drawn) [Example 40, 2,4-cis-2-Butyl-4-(9H-9-carbazolyl)-1-(3,4-dimethoxybenzoyl)-1,2,3,4-tetrahydroquinoline] | 213
COc1ccc(C(=O)N2c3ccccc3C(n3c4ccccc4c4ccccc43)CC2CC(C)C)cc1OC (stereo not drawn) [Example 41, 2,4-cis-4-(9H-9-Carbazolyl)-1-(3,4-dimethoxybenzoyl)-2-isobutyl-1,2,3,4-tetrahydroquinoline] | 191 to 193
COc1ccc(C(=O)N2c3ccccc3C(n3c4ccccc4c4ccccc43)CC2COCc2ccccc2)cc1OC (stereo not shown) [Example 43, 2-[(Benzyloxy)methyl]-4-(9H-9-carbazolyl)-1-(3,4-dimethoxybenzoyl)-1,2,3,4-tetrahydroquinoline] | 203 to 204
CCCCC1C=C(n2c3ccccc3c3ccccc32)c2ccccc2N1C(=O)c1ccc(OC)c(OC)c1 (stereo not shown) [Example 59, 2-Butyl-4-(9H-9-carbazolyl)-1-(3,4-dimethoxybenzoyl)-1,2-dihydroquinoline] | 174 to 175
COc1ccc(C(=O)N2c3ccccc3C(N3CCc4ccccc43)CC2C)cc1OC (stereo not shown) [Example 61, 4-(2,3-Dihydro-1H-indol-1-yl)-1-(3,4-dimethoxybenzoyl)-2-methyl-1,2,3,4-tetrahydroquinoline] | 147 to 148
COc1ccc(C(=O)N2c3ccccc3C(N3CCSc4ccccc43)CC2C)cc1OC (stereo not shown) [Example 72, 4-[1-(3,4-Dimethoxybenzoyl)-2-methyl-1,2,3,4-tetrahydroquinolin-4-yl]-3,4-dihydro-2H-1,4-benzothiazine] | 113 to 114
COc1ccc(C(=O)N2c3ccccc3C(N3CCc4ccccc4C3)CC2C)cc1OC (stereo not shown) [Example 73, 1-(3,4-Dimethoxybenzoyl)-2-methyl-4-(1,2,3,4-tetrahydroisoquinolin-2-yl)-1,2,3,4-tetrahydroquinoline] | 128 to 129

SMILES | melting point [°C]
CCCC1CC(N2CCCc3ccccc32)c2ccccc2N1C(=O)c1ccc(OC)c(OC)c1 (stereo not drawn) [Example 75, 2,4-cis-1-(3,4-Dimethoxybenzoyl)-2-propyl-4-(1,2,3,4-tetrahydroquinolin-1-yl)-1,2,3,4-tetrahydroquinoline] | 176 to 177
CCCCC1C(O)C(N2CCCc3ccccc32)c2ccccc2N1C(=O)c1ccc(OC)c(OC)c1 (stereo not drawn) [Example 76, 2,3-trans-2,4-cis-2-Butyl-1-(3,4-dimethoxybenzoyl)-3-hydroxy-4-(1,2,3,4-tetrahydroquinolin-1-yl)-1,2,3,4-tetrahydroquinoline] | 200 to 202
CCCCC1CC(N2CCCc3ccccc32)c2ccccc2N1C(=O)c1ccc(OC)c(OC)c1 (stereo not drawn) [Example 77, 2,4-cis-2-Butyl-1-(3,4-dimethoxybenzoyl)-4-(1,2,3,4-tetrahydroquinolin-1-yl)-1,2,3,4-tetrahydroquinoline] | 159 to 160
COc1ccc(C(=O)N2c3ccccc3C(N3CCCc4ccc(C)cc43)CC2C)cc1OC (stereo not drawn) [Example 81, 2,4-cis-1-(3,4-Dimethoxybenzoyl)-2-methyl-4-(7-methyl-1,2,3,4-tetrahydroquinolin-1-yl)-1,2,3,4-tetrahydroquinoline] | 197 to 198
COc1ccc(C(=O)N2c3ccccc3C(N3CCCc4cc(C)ccc43)CC2C)cc1OC (stereo not drawn) [Example 83, 2,4-cis-1-(3,4-Dimethoxybenzoyl)-2-methyl-4-(6-methyl-1,2,3,4-tetrahydroquinolin-1-yl)-1,2,3,4-tetrahydroquinoline] | 184 to 185
COc1ccc(C(=O)N2c3ccccc3C(N3CCCc4cc(C(C)C)ccc43)C(O)C2C)cc1OC (stereo not drawn) [Example 84, 2,3-trans-2,4-cis-1-(3,4-Dimethoxybenzoyl)-3-hydroxy-4-(6-isopropyl-1,2,3,4-tetrahydroquinolin-1-yl)-2-methyl-1,2,3,4-tetrahydroquinoline] | 165 to 166
COc1ccc(C(=O)N2c3ccccc3C(N3CCCc4cc(C(C)C)ccc43)CC2C)cc1OC (stereo not drawn) [Example 85, 2,4-cis-4-(6-Isopropyl-1,2,3,4-tetrahydroquinolin-1-yl)-1-(3,4-dimethoxybenzoyl)-2-methyl-1,2,3,4-tetrahydroquinoline] | 187 to 188
CCOc1ccc(C(=O)N2c3ccccc3C(N3CCCc4ccccc43)CC2C)cc1OCC (stereo not shown) [Example 102, 1-(3,4-Diethoxybenzoyl)-2-methyl-4-(1,2,3,4-tetrahydroquinolin-1-yl)-1,2,3,4-tetrahydroquinoline] | 157 to 158
COc1ccc(C(=O)N2c3ccccc3C(n3c4ccccc4c4ccccc43)CC2CCCc2ccccc2)cc1OC (stereo not drawn) [Example 116, 9-[2,4-cis-1-(3,4-Dimethoxybenzoyl)-2-(3phenylpropyl)-1,2,3,4-tetrahydroquinolin-4-yl]-9H-carbazole] | 225 to 226
COc1ccc(C(=O)N2c3ccccc3C(n3c4ccccc4c4ccccc43)CC2CCCO)cc1OC (stereo not drawn) [Example 118, 3-[2,4-cis-4-(9H-9-Carbazolyl)-1-(3,4-dimethoxybenzoyl)-1,2,3,4-tetrahydroquinolin-2-yl]-1-propanol] | 192 to 194
CCCC(=O)NCCCC1CC(n2c3ccccc3c3ccccc32)c2ccccc2N1C(=O)c1ccc(OC)c(OC)c1 (stereo not drawn) [Example 122, N-[3-[2,4-cis-4-(9H-9-Carbazolyl)-1-(3,4-dimethoxybenzoyl)-1,2,3,4-tetrahydroquinolin-2-yl]propyl]butanamide] | 199 to 201
COc1ccc(C(=O)N2c3ccccc3C(n3c4ccccc4c4ccccc43)CC2CCCNC(=O)c2ccccc2)cc1OC (stereo not drawn) [Example 124, N-[3-[2,4-cis-4-(9H-9-Carbazolyl)-1-(3,4-dimethoxybenzoyl)-1,2,3,4-tetrahydroquinolin-2-yl]propyl]-benzamide] | 236 to 237
CCCC1CC(n2c3ccccc3c3ccccc32)c2ccccc2N1C(=O)c1ccc(OCC)c(OC)c1 (stereo not drawn) [Example 146, 2,4-cis-4-(9H-9-Carbazolyl)-1-(4-ethoxy-3-methoxybenzoyl)-2-propyl-1,2,3,4-tetrahydroquinoline] | 221 to 222
CCCCC1CC(n2c3ccccc3c3ccccc32)c2ccccc2N1C(=O)c1ccc(OCC)c(OC)c1 (stereo not drawn) [Example 148, 2,4-cis-9-[2-Butyl-1-(4-ethoxy-3-methoxybenzoyl)-1,2,3,4-tetrahydro-4-quinolinyl]-9H-carbazole] | 231 to 232
CCCCC1CC(n2c3ccccc3c3ccccc32)c2ccccc2N1C(=O)c1ccc(OCC)c(OCC)c1 (stereo not drawn) [Example 149, 2,4-cis-9-[2-Butyl-1-(3,4-diethoxybenzoyl)-1,2,3,4-tetrahydro-4-quinolinyl]-9H-carbazole] | 232 to 233
CCC1CC(n2c3ccccc3c3ccccc32)c2ccccc2N1C(=O)c1ccc(SC)c(OC)c1 (stereo not drawn) [Example 150, 2,4-cis-9-[2-Ethyl-1-(3-methoxy-4-methylthiobenzoyl)-1,2,3,4-tetrahydro-4-quinolinyl]-9H-carbazole] | 210 to 211
CCCCC1CC(n2c3ccccc3c3ccccc32)c2ccccc2N1C(=O)c1ccc(SC)c(OC)c1 (stereo not drawn) [Example 151, 2,4-cis-9-[2-Butyl-1-(3-methoxy-4-methylthiobenzoyl)-1,2,3,4-tetrahydro-4-quinolinyl]-9H-carbazole] | 230 to 231

Reference: patent US6930104B2, “Heterocyclic derivatives” (Takeda Chemical Industries, Ltd., priority 2001, dated 2005)
